# According to patent US20260053811A1, “METHODS OF TREATING HYPERTENSION IN OBESE SUBJECTS” (Mineralys Therapeutics, Inc., priority 2022, published 2026):
# Like-named read-outs stand apart in the source and are kept apart here.
# Assay: Pharmacokinetics (plasma Cmax, AUC, Tmax, t1/2, trough concentrations)
# Assay type: in vivo, human
# Details: for Trough Plasma Concentration, Median / concentration at 7 day: Day 7; for concentration at 7 day / concentration at 28 day / concentration at 56 day / AUC(0-t) / Cmax / Tmax: human, plasma, oral; for concentration at 56 day: Day 56; for Tmax: read-out: Tmax, Median
# Source text: Pharmacokinetic endpoints of this study are PK parameters, including, of area under the plasma concentration versus time curve (AUC), maximum plasma concentration (Cmax), time to maximum concentration (Tmax), and half-life (t1/2) will be summarized descriptively for Randomization (baseline) and Study Weeks 1, 4, and 8
# PK/PD Analysis Set includes all subjects in the SAF who have sufficient data available for the analysis of pharmacokinetic and pharmacodynamic measurements. In the analyses based on PKPD, subjects will be analyzed according to the actual treatment received.
# [1] = 12.5 mg, 12.5 mg BID, read-out: Trough Plasma Concentration, Mean (SD)
# [2] = 12.5 mg, 12.5 mg QD, read-out: Trough Plasma Concentration, Mean (SD)
# [3] = 25 mg, 25 mg BID, read-out: Trough Plasma Concentration, Mean (SD)
# [4] = 50 mg, 50 mg QD, read-out: Trough Plasma Concentration, Mean (SD)
# [5] = 100 mg, 100 mg QD Part 1, read-out: Trough Plasma Concentration, Mean (SD)
# [6] = 100 mg, 100 mg QD Part 1, read-out: Trough Plasma Concentration, Median
# [7] = 100 mg, 100 mg QD Part 2, read-out: Trough Plasma Concentration, Mean (SD)
# [8] = 100 mg, 100 mg QD Part 2, read-out: Trough Plasma Concentration, Median
# [9] = steady state Day 28, 12.5 mg BID
smiles,measurement,setting,value
CC(=O)N[C@H]1CC[C@H](NC(=O)CN2CCN(c3nncc(-c4ccc(C)cc4)n3)CC2)CC1 [Compound A HBr],"Trough Plasma Concentration, Median",12.5 mg BID,26.1 ng/mL
same,"Trough Plasma Concentration, Median",12.5 mg QD,5.52 ng/mL
same,"Trough Plasma Concentration, Median",25 mg BID,52 ng/mL
same,"Trough Plasma Concentration, Median",50 mg QD,12.1 ng/mL
same,concentration at 7 day,[1],52.3 ng/mL
same,concentration at 7 day,[2],11.6 ng/mL
same,concentration at 28 day,"12.5 mg, Day 28, 12.5 mg BID, read-out: Trough Plasma Concentration, Geo Mean",10.7 ng/mL
same,concentration at 28 day,"12.5 mg, Day 28, 12.5 mg BID, read-out: Trough Plasma Concentration, Mean (SD)",33.4 ng/mL
same,concentration at 28 day,"12.5 mg, Day 28, 12.5 mg BID, read-out: Trough Plasma Concentration, Median",27.3 ng/mL
same,concentration at 28 day,"12.5 mg, Day 28, 12.5 mg QD, read-out: Trough Plasma Concentration, Geo Mean",5.77 ng/mL
same,concentration at 28 day,"12.5 mg, Day 28, 12.5 mg QD, read-out: Trough Plasma Concentration, Mean (SD)",7.91 ng/mL
same,concentration at 28 day,"12.5 mg, Day 28, 12.5 mg QD, read-out: Trough Plasma Concentration, Median",4.1 ng/mL
same,concentration at 56 day,"12.5 mg, 12.5 mg BID, read-out: Trough Plasma Concentration, Geometric Mean",18.5 ng/mL
same,concentration at 56 day,[1],40.4 ng/mL
same,concentration at 56 day,"12.5 mg, 12.5 mg BID, read-out: Trough Plasma Concentration, Median",21.6 ng/mL
same,concentration at 56 day,"12.5 mg, 12.5 mg QD, read-out: Trough Plasma Concentration, Geometric Mean",22.1 ng/mL
same,concentration at 56 day,[2],39.9 ng/mL
same,concentration at 56 day,"12.5 mg, 12.5 mg QD, read-out: Trough Plasma Concentration, Median",7.6 ng/mL
same,AUC(0-t),"12.5 mg, steady state Day 28, 12.5 mg BID, read-out: AUC0-24, Geo Mean",940 ng·h/mL
same,AUC(0-t),"12.5 mg, steady state Day 28, 12.5 mg BID, read-out: AUC0-24, Mean (SD)",992 ng·h/mL
same,AUC(0-t),"12.5 mg, steady state Day 28, 12.5 mg BID, read-out: AUC0-24, Median",922 ng·h/mL
same,Cmax,"12.5 mg, steady state Day 28, 12.5 mg BID, read-out: Cmax, Median",137 ng/mL
same,AUC(0-t),"12.5 mg, steady state Day 28, 12.5 mg QD, read-out: AUC0-24, Geo Mean",726 ng·h/mL
same,AUC(0-t),"12.5 mg, steady state Day 28, 12.5 mg QD, read-out: AUC0-24, Mean (SD)",1020 ng·h/mL
same,AUC(0-t),"12.5 mg, steady state Day 28, 12.5 mg QD, read-out: AUC0-24, Median",498 ng·h/mL
same,Cmax,"12.5 mg, steady state Day 28, 12.5 mg QD, read-out: Cmax, Geo Mean",120 ng/mL
same,Cmax,"12.5 mg, steady state Day 28, 12.5 mg QD, read-out: Cmax, Mean (SD)",153 ng/mL
same,Cmax,"12.5 mg, steady state Day 28, 12.5 mg QD, read-out: Cmax, Median",94.9 ng/mL
same,concentration at 7 day,[3],94.2 ng/mL
same,concentration at 28 day,"25 mg, Day 28, 25 mg BID, read-out: Trough Plasma Concentration, Geo Mean",62.1 ng/mL
same,concentration at 28 day,"25 mg, Day 28, 25 mg BID, read-out: Trough Plasma Concentration, Mean (SD)",109 ng/mL
same,concentration at 28 day,"25 mg, Day 28, 25 mg BID, read-out: Trough Plasma Concentration, Median",56.3 ng/mL
same,concentration at 56 day,"25 mg, 25 mg BID, read-out: Trough Plasma Concentration, Geometric Mean",46 ng/mL
same,concentration at 56 day,[3],104 ng/mL
same,concentration at 56 day,"25 mg, 25 mg BID, read-out: Trough Plasma Concentration, Median",32.3 ng/mL
same,AUC(0-t),"25 mg, steady state Day 28, 25 mg BID, read-out: AUC0-24, Geo Mean",1640 ng·h/mL
same,AUC(0-t),"25 mg, steady state Day 28, 25 mg BID, read-out: AUC0-24, Mean (SD)",1760 ng·h/mL
same,AUC(0-t),"25 mg, steady state Day 28, 25 mg BID, read-out: AUC0-24, Median",1670 ng·h/mL
same,Cmax,"25 mg, steady state Day 28, 25 mg BID, read-out: Cmax, Geo Mean",325 ng/mL
same,Cmax,"25 mg, steady state Day 28, 25 mg BID, read-out: Cmax, Median",335 ng/mL
same,concentration at 7 day,[4],93.1 ng/mL
same,concentration at 28 day,"50 mg, Day 28, 50 mg QD, read-out: Trough Plasma Concentration, Geo Mean",46.8 ng/mL
same,concentration at 28 day,"50 mg, Day 28, 50 mg QD, read-out: Trough Plasma Concentration, Mean (SD)",87.4 ng/mL
same,concentration at 28 day,"50 mg, Day 28, 50 mg QD, read-out: Trough Plasma Concentration, Median",20.9 ng/mL
same,concentration at 56 day,"50 mg, 50 mg QD, read-out: Trough Plasma Concentration, Geometric Mean",38.1 ng/mL
same,concentration at 56 day,[4],155 ng/mL
same,concentration at 56 day,"50 mg, 50 mg QD, read-out: Trough Plasma Concentration, Median",18 ng/mL
same,AUC(0-t),"50 mg, steady state Day 28, 50 mg QD, read-out: AUC0-24, Geo Mean",3230 ng·h/mL
same,AUC(0-t),"50 mg, steady state Day 28, 50 mg QD, read-out: AUC0-24, Mean (SD)",3390 ng·h/mL
same,AUC(0-t),"50 mg, steady state Day 28, 50 mg QD, read-out: AUC0-24, Median",3320 ng·h/mL
same,Cmax,"50 mg, steady state Day 28, 50 mg QD, read-out: Cmax, Geo Mean",477 ng/mL
same,Cmax,"50 mg, steady state Day 28, 50 mg QD, read-out: Cmax, Mean (SD)",518 ng/mL
same,Cmax,"50 mg, steady state Day 28, 50 mg QD, read-out: Cmax, Median",488 ng/mL
same,AUC(0-t),"100 mg, 100 mg QD, Cohort 1, Day 28, read-out: Steady-state AUC0-24",14900 ng·h/mL
same,Cmax,"100 mg, 100 mg QD, Cohort 1, Day 28, read-out: Steady-state Cmax",1620 ng/mL
same,AUC(0-t),"100 mg, 100 mg QD, Cohort 2, Day 28, read-out: Steady-state AUC0-24",7480 ng·h/mL
same,Cmax,"100 mg, 100 mg QD, Cohort 2, Day 28, read-out: Steady-state Cmax",1360 ng/mL
same,AUC(0-t),"100 mg, 100 mg QD, Day 28, read-out: Steady-state AUC0-24, mean of Cohort 1 and Cohort 2",~11200 ng·h/mL
same,Cmax,"100 mg, 100 mg QD, Day 28, read-out: Steady-state Cmax, mean of Cohort 1 and Cohort 2",~1490 ng/mL
same,concentration at 7 day,[5],299 ng/mL
same,concentration at 7 day,[6],28.2 ng/mL
same,concentration at 7 day,[7],151 ng/mL
same,concentration at 7 day,[8],29.8 ng/mL
same,concentration at 28 day,"100 mg, Day 28, 100 mg QD Part 1, read-out: Trough Plasma Concentration, Geo Mean",50.7 ng/mL
same,concentration at 28 day,"100 mg, Day 28, 100 mg QD Part 1, read-out: Trough Plasma Concentration, Mean (SD)",303 ng/mL
same,concentration at 28 day,"100 mg, Day 28, 100 mg QD Part 1, read-out: Trough Plasma Concentration, Median",38.6 ng/mL
same,concentration at 28 day,"100 mg, Day 28, 100 mg QD Part 2, read-out: Trough Plasma Concentration, Geo Mean",12.9 ng/mL
same,concentration at 28 day,"100 mg, Day 28, 100 mg QD Part 2, read-out: Trough Plasma Concentration, Mean (SD)",26.4 ng/mL
same,concentration at 28 day,"100 mg, Day 28, 100 mg QD Part 2, read-out: Trough Plasma Concentration, Median",19.9 ng/mL
same,concentration at 56 day,"100 mg, 100 mg QD Part 1, read-out: Trough Plasma Concentration, Geometric Mean",72.1 ng/mL
same,concentration at 56 day,[5],258 ng/mL
same,concentration at 56 day,[6],30.4 ng/mL
same,concentration at 56 day,"100 mg, 100 mg QD Part 2, read-out: Trough Plasma Concentration, Geometric Mean",20.3 ng/mL
same,concentration at 56 day,[7],23.2 ng/mL
same,concentration at 56 day,[8],20 ng/mL
same,AUC(0-t),"100 mg, steady state Day 28, 100 mg QD Part 1, read-out: AUC0-24, Geo Mean",10400 ng·h/mL
same,AUC(0-t),"100 mg, steady state Day 28, 100 mg QD Part 1, read-out: AUC0-24, Mean (SD)",14900 ng·h/mL
same,AUC(0-t),"100 mg, steady state Day 28, 100 mg QD Part 1, read-out: AUC0-24, Median",15000 ng·h/mL
same,Cmax,"100 mg, steady state Day 28, 100 mg QD Part 1, read-out: Cmax, Geo Mean",1370 ng/mL
same,Cmax,"100 mg, steady state Day 28, 100 mg QD Part 1, read-out: Cmax, Mean (SD)",1620 ng/mL
same,Cmax,"100 mg, steady state Day 28, 100 mg QD Part 1, read-out: Cmax, Median",1590 ng/mL
same,AUC(0-t),"100 mg, steady state Day 28, 100 mg QD Part 2, read-out: AUC0-24, Geo Mean",6920 ng·h/mL
same,AUC(0-t),"100 mg, steady state Day 28, 100 mg QD Part 2, read-out: AUC0-24, Mean (SD)",7480 ng·h/mL
same,AUC(0-t),"100 mg, steady state Day 28, 100 mg QD Part 2, read-out: AUC0-24, Median",7090 ng·h/mL
same,Cmax,"100 mg, steady state Day 28, 100 mg QD Part 2, read-out: Cmax, Geo Mean",1000 ng/mL
same,Cmax,"100 mg, steady state Day 28, 100 mg QD Part 2, read-out: Cmax, Mean (SD)",1360 ng/mL
same,Cmax,"100 mg, steady state Day 28, 100 mg QD Part 2, read-out: Cmax, Median",1250 ng/mL
same,Tmax,"steady state Day 28, 12.5 mg QD",1.08 h
same,Tmax,"steady state Day 28, 50 mg QD",2.01 h
same,"Cmax, Geo Mean",[9],140 ng/mL
same,"Cmax, Mean (SD)",[9],142 (28.3) ng/ml
same,"Cmax, Mean (SD)","steady state Day 28, 25 mg BID",361 (175) ng/ml
same,"Tmax, Median","steady state Day 28, 100 mg QD Part 1",1.02 h
same,"Tmax, Median","steady state Day 28, 100 mg QD Part 2",1 h
